# Test results as given in patent US6824770B1, “Adenovirus gene expression system” (Cornell Research Foundation, Inc., priority 1993, dated 2004).
# Where two headings read alike, the source gives them in different places.
# Columns and labels:
# mouse TRH-R = biological target: T1, mouse TRH-R (Mus musculus, UniProt P21761); assay: [3H]methylTRH binding to intact AdCMVmTRHR-infected cells; conditions: TRH-Rs expressed on cells after infection with AdCMVmTRHR; data not shown; read-out: dissociation constant for methylTRH binding
# T1 construct: expressed in transfected cells; host or cells: Infected with AdCMVmTRHR or transfected with pAdCMVmTRHR: HeLa, GHY, AtT-20, C6, CV1, COS-1 and KB cells
# T1 sequence (P21761 1-393): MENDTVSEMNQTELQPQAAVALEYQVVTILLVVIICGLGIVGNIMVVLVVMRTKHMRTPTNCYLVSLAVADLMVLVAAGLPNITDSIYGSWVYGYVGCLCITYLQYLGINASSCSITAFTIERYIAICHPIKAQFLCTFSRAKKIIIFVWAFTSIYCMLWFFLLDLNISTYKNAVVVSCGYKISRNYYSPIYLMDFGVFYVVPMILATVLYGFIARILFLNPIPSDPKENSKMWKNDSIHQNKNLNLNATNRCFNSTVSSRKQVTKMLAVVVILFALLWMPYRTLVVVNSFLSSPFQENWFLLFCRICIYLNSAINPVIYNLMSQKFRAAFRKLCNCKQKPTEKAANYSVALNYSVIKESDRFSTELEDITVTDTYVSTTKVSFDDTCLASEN
# Method: (§1) Cells were seeded in wells (3.8 cm^2) pretreated with poly-L-lysine and were incubated in medium supplemented with serum in a humidified atmosphere of 5% CO2. After a minimum of 4 hours, the medium was aspirated and replaced with 0.3 ml of medium without serum, AdCMVmTRHR (300 particles/cell) was added and the cells were incubated at 37° C. After 1 hour, 0.7 to 1.0 ml medium containing serum was added and the incubation continued for 3 to 72 hours. Infection with AdCMVmTRHR was performed in an identical manner for all cell types except that the incubation mediums were different. The mediums were: Dulbecco's modified Eagle's medium supplemented with 5% Nu-Serum for human cervical cancer HeLa cells, monkey kidney Cos-1 and CV-1 cells, and rat glioma C6 cells; Ham's F-10 medium with 15% horse serum and 2.5% fetal bovine serum for rat pituitary tumor GHY cells; Delbecco's modified Eagle's medium with 10% Nu-Serum for mouse pituitary tumor AtT-20 cells; and modified Eagle's medium with 10% fetal bovine serum for human epidermoid KB cells. None of these cell lines express TRH-Rs. Cells were studied 16 to 24 hours after infection with 300 AdCMVmTRHR particles per cell which yielded maximal TRH-R expression. […]
# TRH-R [1] = biological target: T2, TRH-R (Mus musculus, UniProt P21761); assay: methylTRH stimulation of [3H]IP formation (TRH response); assay type: cell-based; conditions: uninfected HeLa, GHY, AtT, C6, CV1 and COS-1 cells
# T2 construct: expressed in transfected cells; host or cells: Infected with AdCMVmTRHR or transfected with pAdCMVmTRHR: HeLa, GHY, AtT-20, C6, CV1, COS-1 and KB cells
# Method: as §1, with “TRH-Rs.” for “TRH-Rs. Cells were studied 16 to 24 hours after infection with 300 AdCMVmTRHR particles per cell which yielded maximal TRH-R expression.”
# Infected or transfected cells were labelled for 24 hours with [^3H]myo-inositol, stimulated with TRH or methylTRH in a balanced salt solution containing 10 mM LiCl and [^3H]IPs were measured as described by Imai et al., 1987, Methods. […]
# TRH-R [2] = biological target: T2, TRH-R; assay: Internalization of TRH-Rs (acid-resistant specifically bound [3H]methylTRH); assay type: cell-based; conditions: methylTRH-bound receptors
# Method: Cells were seeded in wells (3.8 cm^2) pretreated with poly-L-lysine and were incubated in medium supplemented with serum in a humidified atmosphere of 5% CO2. After a minimum of 4 hours, the medium was aspirated and replaced with 0.3 ml of medium without serum, AdCMVmTRHR (300 particles/cell) was added and the cells were incubated at 37° C. After 1 hour, 0.7 to 1.0 ml medium containing serum was added and the incubation continued for 3 to 72 hours. Infection with AdCMVmTRHR was performed in an identical manner for all cell types except that the incubation mediums were different. The mediums were: Dulbecco's modified Eagle's medium supplemented with 5% Nu-Serum for human cervical cancer HeLa cells, monkey kidney Cos-1 and CV-1 cells, and rat glioma C6 cells; Ham's F-10 medium with 15% horse serum and 2.5% fetal bovine serum for rat pituitary tumor GHY cells; Delbecco's modified Eagle's medium with 10% Nu-Serum for mouse pituitary tumor AtT-20 cells; and modified Eagle's medium with 10% fetal bovine serum for human epidermoid KB cells. None of these cell lines express TRH-Rs. Cells were studied 16 to 24 hours after infection with 300 AdCMVmTRHR particles per cell which yielded maximal TRH-R expression.
# Internalization was measured as specifically bound [^3H]methylTRH that was resistant to acid wash (Hinkle et al., 1982, J.Biol. Chem., vol. 257, pp. 5462-5470; and Nussenzveig et al., 1993, J.Biol. Chem., vol. 268, pp. 2389-2392, which disclosures are hereby incorporated by reference). Specific acid resistant binding was calculated by subtracting the nonspecifically bound from the [^3H]methylTRH remaining after acid/salt elution.
# TRH-R [3] = biological target: T2, TRH-R; assay type: cell-based
smiles,measurement,setting,value
Cn1cnc(C[C@H](NC(=O)[C@@H]2CCC(=O)N2)C(=O)N2CCC[C@H]2C(N)=O)c1 [methylTRH],Kd,mouse TRH-R,1.09 ± 0.26 nM
same,response to methylTRH (IP formation) in uninfected cells,TRH-R [1],did not respond
same,TRH-Rs internalized after 60 minutes,TRH-R [2]; AdCMVmTRHR-infected COS-1 cells (printed COA-1),62±2.1%
same,TRH-Rs internalized after 60 minutes,TRH-R [2]; AdCMVmTRHR-infected GHY cells,64±7.0%
same,TRH-Rs internalized after 60 minutes,TRH-R [2]; AdCMVmTRHR-infected KB cells,71±2.6%
CCCCCCCCCCCCCC(=O)O[C@@H]1[C@@H](C)[C@@]2(O)[C@@H](C=C(CO)C[C@]3(O)C(=O)C(C)=C[C@@H]23)[C@@H]2C(C)(C)[C@]12OC(C)=O [PMA],PMA-induced inhibition of the TRH response,"TRH-R [3]; AdCMVmTRHR-infected AtT-20 cells, 0.1 μM PMA 60 minutes prior to TRH",37±4.0%
same,PMA-induced inhibition of the TRH response,"TRH-R [3]; AdCMVmTRHR-infected COS-1 cells, 0.1 μM PMA 60 minutes prior to TRH",37±8.0%
same,PMA-induced inhibition of the TRH response,"TRH-R [3]; AdCMVmTRHR-infected GHY cells, 0.1 μM PMA added 60 minutes prior to TRH",25±4.6%
same,PMA-induced inhibition of the TRH response,"TRH-R [3]; AdCMVmTRHR-infected KB cells, 0.1 μM PMA 60 minutes prior to TRH",0±10%
"NC(=O)[C@@H]1CCCN1C(=O)[C@H](Cc1cnc[nH]1)NC(=O)[C@@H]1CCC(=O)N1 [TRH, thyrotropin-releasing hormone]",TRH-induced desensitization: decrease of rate of IP formation compared to control,"TRH-R [3]; AdCMVmTRHR-infected AtT-20 cells, 60 minutes 1 μM TRH",41±4.7%
same,TRH-induced desensitization,"TRH-R [3]; AdCMVmTRHR-infected COS-1 cells, 60 minutes 1 μM TRH",did not desensitize
same,TRH-induced desensitization: decrease of the response to TRH,"TRH-R [3]; AdCMVmTRHR-infected GHY cells, after 60 minutes of stimulation by 1 μM TRH",49±5.2%
same,TRH-induced desensitization,"TRH-R [3]; AdCMVmTRHR-infected KB cells, 60 minutes 1 μM TRH",0±10%
